The term IC50 denotes the point on the concentration scale where inhibition reaches its midpoint. What is called half-life is how long it takes for the measured level to halve.

Converted amounts (≈) assume the structure as drawn. Like-named read-outs stand apart in the source and are kept apart here. Residues, ends and D or L forms follow the SMILES beside them. *: point of attachment. X1 = NOCC(=O)NCCOCCN* Where only a bound is given, the exact number is not on record here.

The source of these data is patent publication US20070275911A1, “Targeted Drug-Formaldehyde Conjugates and Methods of Making and Using the Same” (priority 2003, published 2007).

Data set [1] deals with T1, ανβ3 integrin present on viable MDA-MB-435 cells (Homo sapiens, UniProt P05106+P06756).
T1 construct: endogenous in cells
Kind of data set: Vitronectin cell adhesion (competition) assay. Format: cell-based. From the text: The data are presented as the mean fluorescence for each condition with the background, drug-free cell fluorescence subtracted.

Data set [2] relates to Staphylococcus aureus IL-F (VISA).
Data set [3] deals with Staphylococcus aureus Mu 50 (VISA). Particulars: for MIC: Mu 50 VISA.
Data set [4] concerns Staphylococcus aureus IL-A (Hetero VISA).
Data set [5] relates to Staphylococcus aureus 8325 (susceptible). Particulars: for MIC: 8325 susceptible.
In data set [6] the test system is Staphylococcus aureus Mu 3 (Hetero VISA).
Data set [7] can be described thus: Water solubility and storage stability of RGD constructs.
In data set [8] the test system is MDA-MB-23 1, and BT-20 human breast cancer cells. Particulars: cited from earlier work.
The conditions of data set [9]: cell line not stated; cited from earlier work.
Data set [10] deals with human breast cancer xenografts. Particulars: same time period (10 days); cited from earlier work.
For data set [11], the system named is Staphylococcus aureus 8325 (susceptible). Description: microbe, parasite or virus in culture.
Data set [12] concerns MCF-7/Adr cells. Description: Breast cancer cell growth inhibition, 4 h treatment. Particulars: MCF-7/Adr (−/+/+), 4 h treatment. As for the experimental part: (§1) Breast cancer cell growth inhibition: The ER-targeted DOX-formaldehyde conjugates, 11a-c, were evaluated against four breast cancer cell lines that differ in terms of estrogen receptor and multidrug resistance expression. MCF-7 cells are human breast adenocarcinoma cells that express estrogen receptor at a level of 195,000 sites/cell. MCF-7/Adr cells are an ER-negative, doxorubicin-resistant variant of the parent MCF-7 that express the multidrug resistance (MDR) phenotype. MDA-MB-231 and MDA-MB-435 are ER-negative human breast adenocarcinoma and ductal carcinoma cells, respectively. All cytotoxins were formulated as 100× solutions in DMSO/1% AcOH and delivered to cells as 1% DMSO (0.01% AcOH) in cell culture medium. In all experiments cell treatment lasted 4 h.
(§2) In Vitro cellular growth inhibition experiments: The IC50 for the targeted formaldehyde conjugates and all control compounds were performed as previously described with minor modifications. All compounds were solubilized in dimethylsulfoxide containing 1% v/v acetic acid. The concentrations of all 100× DMSO/1% AcOH drug solutions was determined spectrophotometrically by absorbance at 480 nm (ε=[…]). […] For every experiment each drug level and controls were performed in hexuplicate; each experiment was performed in at least duplicate. Error bars represent one standard deviation about the mean for the six wells per lane measured for each drug concentration.

The test system of data set [13] is MCF-7 cells. The description is as above. Particulars: MCF-7 (ER/AEBS/MDR +/+/−), 4 h treatment. As to the method:
as §1, §2

The test system of data set [14] is MDA-MB-435. Described as above. Particulars: MDA-MB-435 (−/+/−), 4 h treatment. As for the experimental part: as §1, §2
Data set [15] concerns MDA-MB-231. The description is as above. The conditions noted are these: MDA-MB-231 (−/+/−), 4 h treatment. As for the experimental part:
as §1, §2

The subject of data set [16] is 3T3 mouse fibroblasts. Particulars: cited from earlier work.
For data set [17], the system named is P. aeruginosa ATCC 27853. Particulars: cited from earlier work.
The test system of data set [18] is Human erythrocytes. Particulars: cited from earlier work.
Data set [19] has as its system S. aureus ATCC 25723. The conditions noted are these: cited from earlier work.
For data set [20], the system named is E. coli ATCC 25922. The conditions noted are these: cited from earlier work.
Data set [21] has as its system Staphylococcus aureus Mu 50 (VISA). Kind of data set: microbe, parasite or virus in culture.
Data set [22] deals with Staphylococcus aureus IL-A (Hetero VISA). Description: microbe, parasite or virus in culture.
The test system of data set [23] is Staphylococcus aureus IL-F (VISA). Kind of data set: microbe, parasite or virus in culture.
Data set [24] concerns Staphylococcus aureus Mu 3 (Hetero VISA). Description: microbe, parasite or virus in culture.
For data set [25] the following is noted: cited from earlier work; for tolerance by mice: doxoform: doses as low as 1 mg/kg, epidoxoform: up to 150% of MTD of doxorubicin.
The test system of data set [26] is MCF-7. Particulars: sensitive MCF-7; cited from earlier work.
Data set [27] deals with MCF-7/ADR. Particulars: resistant MCF-7/ADR; cited from earlier work.
For data set [28] the following is noted: buffer, pH 7.4; cited from earlier work.

Take `N=C(N)NCCC[C@H](NC(=O)[C@H](CS)NC(=O)[C@H](CC(=O)O)NC(=O)[C@@H](N)CS)C(=O)NCC(=O)N[C@@H](CC(=O)O)C(=O)N[C@@H](CS)C(=O)N[C@@H](Cc1ccccc1)C(=O)N[C@@H](CS)C(=O)NCCOCCNC(=O)CON` [Acyclic-RGD-4C-tether 3] (H-CDCRGDCFC-X1): in data set [1], the IC50 amounted to 0.001 µM.
On to `O=C(NCN1CCN(c2cc3c(cc2F)c(=O)c(C(=O)O)cn3C2CC2)CC1)c1ccccc1O` [Ciprosaliform, N-(2-Hydroxybenzamido-methyl)-ciprofloxacin], for which the MIC in data set [2] (24 hr) was 8/8 μM; in [2] (48 hr), 8/8 μM; in [3] (24 hr) it was 4 µM (≈ 1.92 µg/mL); in [3] (48 hr) it was 8 µM (≈ 3.84 µg/mL); in data set [4] (24 hr) it was 8/8 μM; in data set [4] (48 hr), 8/8 μM. For the same compound, the MIC is 1/1 μM in [5] (24 hr), 1/1 μM in data set [5] (48 hr), 4 µM (≈ 1.92 µg/mL) in data set [6] (24 hr) and 8 µM (≈ 3.84 µg/mL) in data set [6] (48 hr). For the same compound, the “fold more active than ciprofloxacin” value in data set [5] (susceptible strain) was found to be 6 fold.
As to “RGD-4C: peptide CDCRGDCFC; at b346 the form with disulfide bridges [reference compound]”, the water solubility entry in data set [7] is recorded as “poorly water soluble over a range of pH”.
In the case of `O=c1c(-c2ccc(O)cc2)coc2cc(O)cc(O)c12` [genistein], in data set [8], the antitumor activity is 120 µM. Further, in data set [9], the IC50 is 120 µM. For the same compound, the “increase in tumor size” value in data set [10] was over 200%.
For the compound `O=C(O)c1cn(C2CC2)c2cc(N3CCNCC3)c(F)cc2c1=O` [Ciprofloxacin, ciprofloxacin], in data set [3] (VISA and hetero VISA strains), the antibiotic activity entry was “inactive”. Also, the values for the MIC in [11] (24 h) and in [11] (48 h) were 6 µM (≈ 1.99 µg/mL) and 12 µM (≈ 3.98 µg/mL), respectively.
As for `CC/C(=C(\c1ccc(O)cc1)c1ccc(OCCN(C)C)cc1)c1ccccc1` [compound 12, E/Z-4-Hydroxytamoxifen, reference compound], the half-inhibitory concentration (IC50) in data set [12] was 20 to 40 µM; in data set [13], 0.3 µM; in data set [14], 20 to 40 µM; in data set [15], 20 to 40 µM.
Consider “(KLAKKLA)2: antimicrobial peptide (KLAKKLA)2 SEQ ID NO: 3 (microbe homing peptide)”, for which the “sub-lethal concentration (lysis)” value was over 272 µM in data set [16] and over 750 µM in [18]. Also, the “MIC (bacterial lysis)” value was 3 µM in data set [17], 6 µM in [19] and 6 µM in data set [20].
Consider `CN[C@H](CC(C)C)C(=O)N[C@H]1C(=O)N[C@@H](CC(N)=O)C(=O)N[C@H]2C(=O)N[C@H]3C(=O)N[C@H](C(=O)N[C@H](C(=O)O)c4cc(O)cc(O)c4-c4cc3ccc4O)[C@H](O)c3ccc(c(Cl)c3)Oc3cc2cc(c3O[C@@H]2O[C@H](CO)[C@@H](O)[C@H](O)[C@H]2O[C@H]2C[C@](C)(N)[C@H](O)[C@H](C)O2)Oc2ccc(cc2Cl)[C@H]1O` [Vancomycin, vancomycin], for which the MIC turned out to be 4 µM (≈ 5.8 µg/mL) in data set [21] (24 h); 4 µM (≈ 5.8 µg/mL) in [21] (48 h); 0.3 µM (≈ 0.435 µg/mL) in data set [11] (24 h); 0.3 µM (≈ 0.435 µg/mL) in data set [11] (48 h); 1 µM (≈ 1.45 µg/mL) in data set [22] (24 h); 1 µM (≈ 1.45 µg/mL) in data set [22] (48 h). The MIC in [23] (24 h) stood at 3 µM (≈ 4.35 µg/mL); in data set [23] (48 h), 3 µM (≈ 4.35 µg/mL); in data set [24] (24 h) it was 0.5 µM (≈ 0.725 µg/mL); in data set [24] (48 h), 1 µM (≈ 1.45 µg/mL).
For `COc1cccc2c1C(=O)c1c(O)c3c(c(O)c1C2=O)C[C@@](O)(C(=O)CO)C[C@@H]3OC1CC2C(OCN2CN2COC3C(C)OC(O[C@H]4C[C@](O)(C(=O)CO)Cc5c(O)c6c(c(O)c54)C(=O)c4c(OC)cccc4C6=O)CC32)C(C)O1` (stereo partly drawn) [doxoform], the tolerance by mice result in data set [25] is listed as “poorly tolerated”. Also, the results for the “times as potent as doxorubicin” value in [26] and in [27] were 250 times and 10,000 times, respectively.
As for `COc1cccc2c1C(=O)c1c(O)c3c(c(O)c1C2=O)C[C@@](O)(C(=O)CO)C[C@@H]3O[C@H]1C[C@H]2C(OCN3CN2CO[C@H]2[C@@H](C)O[C@@H](O[C@H]4C[C@](O)(C(=O)CO)Cc5c(O)c6c(c(O)c54)C(=O)c4c(OC)cccc4C6=O)C[C@@H]23)[C@H](C)O1` (stereo partly drawn) [epidoxoform], in data set [25], the tolerance by mice entry is on record as “well tolerated”. Also, in [25] (relative to doxorubicin), the efficacy in mice result is reported as “improved efficacy in mice, relative to doxorubicin”. In addition, the half-life in [28] is 2 h.
In the case of `C#Cc1cccc(Nc2ncnc3cc(OCCOC)c(OCCOC)cc23)c1` [Tarceva, reference compound], the IC50 in data set [9] was 0.05 µM.
